# From patent US6291194A, “Assay for determination of androgenic or anti-androgenic activity of a serum sample or a test compound” (priority 2000, dated 2001)
# Experiments:
# androgen receptor (AR) = molecular target: T1, androgen receptor (AR) (Homo sapiens, UniProt P10275); experiment: COS-1 bioassay, inhibition by nonsteroidal antiandrogens of testosterone-induced AR LBD / N-terminal interaction; format: cell-based
# T1 construct: The LBD of human AR (containing amino acids 657-919); expressed in transfected cells; host or cells: COS-1 cells (ATCC CRL1650)
# [1] = cited from earlier work
# T1 sequence (P10275 with tags, fused parts or gaps limits assumed): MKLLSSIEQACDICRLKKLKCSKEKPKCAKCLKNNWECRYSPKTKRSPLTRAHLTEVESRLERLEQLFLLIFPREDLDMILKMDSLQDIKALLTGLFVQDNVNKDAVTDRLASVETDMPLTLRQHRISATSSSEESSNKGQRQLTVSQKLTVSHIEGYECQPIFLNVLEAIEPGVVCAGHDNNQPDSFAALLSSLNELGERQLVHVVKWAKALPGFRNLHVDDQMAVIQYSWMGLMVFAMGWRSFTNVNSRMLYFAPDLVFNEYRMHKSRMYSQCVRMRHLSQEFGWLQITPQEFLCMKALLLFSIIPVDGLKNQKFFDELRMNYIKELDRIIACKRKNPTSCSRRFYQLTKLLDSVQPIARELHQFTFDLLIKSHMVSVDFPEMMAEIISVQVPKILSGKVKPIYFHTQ
Structure (SMILES),effect on interaction between AR termini / relative luciferase activity (in words) (androgen receptor (AR)),relative luciferase activity as % of activity with testosterone-containing FCS without antiandrogen (androgen receptor (AR); 100 times molar amount of testosterone (10 nmol/L testosterone in FCS)),free fraction of total testosterone in serum [1]
"CC(C)(O)C(=O)Nc1ccc([N+](=O)[O-])c(C(F)(F)F)c1 [hydroxyflutamide, 4-hydroxy-α,α,α-trifluoro-2-methyl-4'-nitro-m-propionotoluidide]",suppressed relative luciferase activity,~ 5%,–
"C[C@]12CC[C@H]3[C@@H](CCC4=CC(=O)CC[C@@]43C)[C@@H]1CC[C@@H]2O [testosterone, Testosterone]",–,–,2-3%
